In ChEMBL document CHEMBL1909046, “DrugMatrix in vitro pharmacology data”:

How the values were obtained:
[1] = target: C-C chemokine receptor type 2 (Homo sapiens, UniProt P41597); assay type: cell membranes, Membrane; settings: cho-k1; further: in other assays of this panel Not Active means under 50% inhibition at 10 µM
[2] = target: T1, Muscarinic acetylcholine receptor M5 (Homo sapiens, UniProt P08912); assay type: cell membranes, CHO-K1, Membrane; further: in other assays of this panel Not Active means under 50% inhibition at 10 µM
T1 sequence (P08912 whole entry): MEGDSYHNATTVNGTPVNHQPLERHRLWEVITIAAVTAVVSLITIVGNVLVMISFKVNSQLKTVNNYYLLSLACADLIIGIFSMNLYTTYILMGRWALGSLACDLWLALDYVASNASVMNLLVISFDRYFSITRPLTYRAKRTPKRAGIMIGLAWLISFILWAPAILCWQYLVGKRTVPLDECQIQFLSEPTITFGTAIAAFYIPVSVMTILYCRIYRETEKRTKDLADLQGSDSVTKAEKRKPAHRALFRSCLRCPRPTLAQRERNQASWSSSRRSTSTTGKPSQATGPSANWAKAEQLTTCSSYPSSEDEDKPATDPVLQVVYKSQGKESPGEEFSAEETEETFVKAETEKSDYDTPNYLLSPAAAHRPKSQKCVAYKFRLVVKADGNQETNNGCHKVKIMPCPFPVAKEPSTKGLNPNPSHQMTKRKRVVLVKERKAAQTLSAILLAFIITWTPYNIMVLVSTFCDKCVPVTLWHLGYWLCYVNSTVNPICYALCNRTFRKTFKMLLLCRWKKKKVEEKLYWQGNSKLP

[3] = target: T2, Alpha-2A adrenergic receptor (Homo sapiens, UniProt P08913); assay type: cell membranes, Sf9, Membrane; settings: for Ki: read-out: Ki; on all read-outs here: in other assays of this panel Not Active means under 50% inhibition at 10 µM
T2 sequence (P08913 whole entry): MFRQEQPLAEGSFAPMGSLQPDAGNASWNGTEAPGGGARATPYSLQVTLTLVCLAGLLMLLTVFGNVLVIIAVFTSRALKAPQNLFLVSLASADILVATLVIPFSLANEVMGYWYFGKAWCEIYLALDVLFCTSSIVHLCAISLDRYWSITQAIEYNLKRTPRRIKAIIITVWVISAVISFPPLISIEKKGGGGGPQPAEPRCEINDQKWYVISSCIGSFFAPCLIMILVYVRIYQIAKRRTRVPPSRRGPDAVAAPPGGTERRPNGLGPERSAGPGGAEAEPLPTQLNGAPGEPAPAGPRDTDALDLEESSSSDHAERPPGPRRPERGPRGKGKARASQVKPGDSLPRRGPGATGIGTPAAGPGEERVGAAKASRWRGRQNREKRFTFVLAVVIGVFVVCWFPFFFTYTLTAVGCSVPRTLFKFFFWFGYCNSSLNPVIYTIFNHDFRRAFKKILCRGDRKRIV

[4] = target: Beta-1 adrenergic receptor (Homo sapiens, UniProt P08588); test: DRUGMATRIX: Adrenergic beta1 radioligand binding (ligand: [125I] Cyanopindolol); assay type: cell membranes, CHO-K1, Membrane; settings: cho-k1; Not Active = under 50% inhibition at 10 µM
[5] = target: Epidermal growth factor receptor (Homo sapiens, UniProt P00533); test: DRUGMATRIX: Protein Tyrosine Kinase, EGF Receptor enzyme inhibition (substrate: Poly(Glu:Tyr)); assay type: cell-based, Insect cells; settings: Not Active = under 50% inhibition at 10 µM
Cytochrome P450 2C19 = Cytochrome P450 2C19 (Homo sapiens, UniProt P33261); settings: bti-tn-5b1-4; further: in other assays of this panel Not Active means under 50% inhibition at 10 µM
Sequence of Cytochrome P450 2C19 (P33261 whole entry): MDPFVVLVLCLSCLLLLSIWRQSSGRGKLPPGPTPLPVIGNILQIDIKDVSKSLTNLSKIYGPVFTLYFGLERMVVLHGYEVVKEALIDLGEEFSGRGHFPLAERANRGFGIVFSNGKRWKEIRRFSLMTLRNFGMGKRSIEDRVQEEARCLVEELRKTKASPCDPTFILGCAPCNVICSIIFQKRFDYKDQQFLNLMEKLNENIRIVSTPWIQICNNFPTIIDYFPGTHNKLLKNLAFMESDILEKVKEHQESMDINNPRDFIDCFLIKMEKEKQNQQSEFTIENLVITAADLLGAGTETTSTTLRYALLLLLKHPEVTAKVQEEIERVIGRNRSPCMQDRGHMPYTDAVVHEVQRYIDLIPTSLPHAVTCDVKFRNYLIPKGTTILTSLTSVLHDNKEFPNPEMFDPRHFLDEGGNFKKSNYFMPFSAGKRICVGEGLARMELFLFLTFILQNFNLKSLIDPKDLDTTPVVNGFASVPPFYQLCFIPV

Sequence of Epidermal growth factor receptor (P00533 whole entry): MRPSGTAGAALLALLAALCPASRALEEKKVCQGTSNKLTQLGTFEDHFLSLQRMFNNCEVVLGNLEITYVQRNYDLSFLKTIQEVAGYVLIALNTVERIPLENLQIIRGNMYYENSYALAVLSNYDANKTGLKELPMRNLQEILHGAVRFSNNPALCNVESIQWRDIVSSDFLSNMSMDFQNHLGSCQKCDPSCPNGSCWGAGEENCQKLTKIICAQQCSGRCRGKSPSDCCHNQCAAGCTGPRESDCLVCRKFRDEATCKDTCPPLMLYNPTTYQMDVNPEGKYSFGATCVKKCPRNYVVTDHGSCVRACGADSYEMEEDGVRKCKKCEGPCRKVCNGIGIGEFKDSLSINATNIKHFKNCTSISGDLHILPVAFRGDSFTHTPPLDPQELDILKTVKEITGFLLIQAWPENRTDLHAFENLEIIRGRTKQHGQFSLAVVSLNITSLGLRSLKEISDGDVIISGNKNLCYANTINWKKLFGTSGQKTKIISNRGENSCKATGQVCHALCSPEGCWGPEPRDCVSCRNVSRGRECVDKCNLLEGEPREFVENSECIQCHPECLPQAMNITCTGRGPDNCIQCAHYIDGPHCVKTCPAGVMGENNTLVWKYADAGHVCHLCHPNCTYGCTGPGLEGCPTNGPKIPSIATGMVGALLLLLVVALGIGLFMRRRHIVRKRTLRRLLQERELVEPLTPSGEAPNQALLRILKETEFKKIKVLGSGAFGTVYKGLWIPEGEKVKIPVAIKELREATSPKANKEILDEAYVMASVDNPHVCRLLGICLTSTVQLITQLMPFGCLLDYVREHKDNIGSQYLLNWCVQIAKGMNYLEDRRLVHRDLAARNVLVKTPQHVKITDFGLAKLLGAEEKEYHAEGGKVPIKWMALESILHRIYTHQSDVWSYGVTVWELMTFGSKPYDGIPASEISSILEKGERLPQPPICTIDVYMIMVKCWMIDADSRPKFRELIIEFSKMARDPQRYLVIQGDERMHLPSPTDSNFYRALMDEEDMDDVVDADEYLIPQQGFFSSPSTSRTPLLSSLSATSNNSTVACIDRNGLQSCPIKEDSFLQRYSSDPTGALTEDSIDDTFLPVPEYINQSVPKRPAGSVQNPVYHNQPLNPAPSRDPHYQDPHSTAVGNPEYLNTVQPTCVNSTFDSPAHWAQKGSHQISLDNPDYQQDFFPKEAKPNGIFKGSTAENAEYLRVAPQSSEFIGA
Sequence of C-C chemokine receptor type 2 (P41597 whole entry): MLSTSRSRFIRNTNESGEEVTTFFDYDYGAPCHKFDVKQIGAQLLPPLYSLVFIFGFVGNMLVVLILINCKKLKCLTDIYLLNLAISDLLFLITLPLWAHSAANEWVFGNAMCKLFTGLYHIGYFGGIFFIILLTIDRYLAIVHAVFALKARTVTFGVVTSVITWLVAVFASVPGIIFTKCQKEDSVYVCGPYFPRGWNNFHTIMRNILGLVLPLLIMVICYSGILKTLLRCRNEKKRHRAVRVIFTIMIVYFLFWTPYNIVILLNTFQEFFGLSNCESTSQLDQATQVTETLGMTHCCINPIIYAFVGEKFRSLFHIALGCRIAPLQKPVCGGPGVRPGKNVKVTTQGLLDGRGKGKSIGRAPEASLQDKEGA
Sequence of Beta-1 adrenergic receptor (P08588 whole entry): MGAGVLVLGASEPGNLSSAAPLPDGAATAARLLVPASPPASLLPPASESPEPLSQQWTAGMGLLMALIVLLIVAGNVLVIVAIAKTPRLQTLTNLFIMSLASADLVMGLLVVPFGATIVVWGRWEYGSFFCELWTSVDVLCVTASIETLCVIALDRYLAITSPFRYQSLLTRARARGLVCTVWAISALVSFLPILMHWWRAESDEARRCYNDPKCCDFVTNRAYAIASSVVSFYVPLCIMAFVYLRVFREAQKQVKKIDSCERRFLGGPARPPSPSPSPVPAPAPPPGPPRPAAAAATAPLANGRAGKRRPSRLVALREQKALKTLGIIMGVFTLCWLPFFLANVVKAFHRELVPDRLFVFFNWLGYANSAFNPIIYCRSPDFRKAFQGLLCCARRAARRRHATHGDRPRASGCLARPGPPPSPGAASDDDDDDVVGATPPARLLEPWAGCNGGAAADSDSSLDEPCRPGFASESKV

| Compound | IC50 [1] | IC50 ([2]; cho-k1) | IC50 ([3]; sf9) | IC50 [4] | IC50 ([5]; read-out: IC50) [µM] | IC50 (Cytochrome P450 2C19) | Ki (Cytochrome P450 2C19) | IC50 ([5]; insect cells) | IC50 ([2]; read-out: IC50) [µM] | Ki ([2]; read-out: Ki) [µM] | IC50 ([3]; read-out: IC50) [µM] | Ki [3] [µM] | Ki ([2]; cho-k1) |
| --- | --- | --- | --- | --- | --- | --- | --- | --- | --- | --- | --- | --- | --- |
| CCOc1nc2cccc(C(=O)O)c2n1Cc1ccc(-c2ccccc2-c2nnn[nH]2)cc1 | Not Active | Not Active | Not Active | Not Active | 3.28 | – | – | – | – | – | – | – | – |
| O=C(O)CCCc1cccs1 | Not Active | Not Active | Not Active | Not Active | – | Not Active | Not Active | Not Active | – | – | – | – | – |
| COc1ccccc1N | Not Active | Not Active | Not Active | Not Active | – | Not Active | Not Active | Not Active | – | – | – | – | – |
| O=C(c1ccccc1F)N1CCC(Cc2ccccc2)CC1 | Not Active | Not Active | Not Active | Not Active | – | – | – | Not Active | – | – | – | – | – |
| Cc1c(O)cccc1C(=O)N[C@@H](CSc1ccccc1)[C@H](O)CN1C[C@H]2CCCC[C@H]2C[C@H]1C(=O)NC(C)(C)C | Not Active | – | Not Active | – | 55.6 | Not Active | Not Active | – | 86.1 | 61.8 | – | – | – |
| CC(O)COC[C@H]1O[C@@H]2O[C@H]3[C@H](O)[C@@H](O)[C@@H](O[C@H]4[C@H](O)[C@@H](O)[C@@H](O[C@H]5[C@H](O)[C@@H](O)[C@@H](O[C@H]6[C@H](O)[C@@H](O)[C@@H](O[C@H]7[C@H](O)[C@@H](O)[C@@H](O[C@H]8[C@H](O)[C@@H](O)[C@@H](O[C@H]1[C@H](O)[C@H]2O)O[C@@H]8COCC(C)O)O[C@@H]7COCC(C)O)O[C@@H]6COCC(C)O)O[C@@H]5COCC(C)O)O[C@@H]4COCC(C)O)O[C@@H]3COCC(C)O (stereo partly drawn) [2-HYDROXYPROPYL-BETA-CYCLODEXTRIN] | Not Active | Not Active | Not Active | Not Active | – | Not Active | Not Active | Not Active | – | – | – | – | – |
| NC(=O)c1cccc(N)c1 [3-AMINOBENZAMIDE] | Not Active | Not Active | Not Active | Not Active | – | Not Active | Not Active | Not Active | – | – | – | – | – |
| C[C@H]1O[C@H](O[C@H]2[C@H](O)[C@@H](O)[C@@H](O[C@H]3[C@H](O)[C@@H](O)C(O)O[C@@H]3CO)O[C@@H]2CO)[C@H](O)[C@@H](O)[C@@H]1N[C@H]1C=C(CO)[C@@H](O)[C@H](O)[C@H]1O (stereo partly specified) [ACARBOSE] | Not Active | Not Active | Not Active | Not Active | – | Not Active | Not Active | Not Active | – | – | – | – | – |
| CC[C@H]1[C@@H]2C[C@H]3[C@@H]4N(C)c5ccccc5[C@]45C[C@@H]([C@@H]2[C@H]5O)N3[C@@H]1O [AJMALINE] | Not Active | Not Active | Not Active | Not Active | – | Not Active | Not Active | Not Active | – | – | – | – | – |
| NC12CC3CC(CC(C3)C1)C2 [AMANTADINE] | Not Active | Not Active | Not Active | Not Active | – | – | – | Not Active | – | – | – | – | – |
| NCCCNCCSP(=O)(O)O [AMIFOSTINE] | Not Active | Not Active | Not Active | Not Active | – | Not Active | Not Active | Not Active | – | – | – | – | – |
| CN(C)CCC=C1c2ccccc2CCc2ccccc21 [AMITRIPTYLINE] | Not Active | – | – | Not Active | – | Not Active | Not Active | Not Active | 0.00802 | 0.00576 | 0.351 | 0.132 | – |
| CC(=O)Oc1ccccc1C(=O)O [ASPIRIN] | Not Active | Not Active | Not Active | Not Active | – | Not Active | Not Active | Not Active | – | – | – | – | – |
| CC(C)c1c(C(=O)Nc2ccccc2)c(-c2ccccc2)c(-c2ccc(F)cc2)n1CC[C@@H](O)C[C@@H](O)CC(=O)O [ATORVASTATIN] | Not Active | Not Active | Not Active | Not Active | – | – | – | Not Active | – | – | – | – | – |
| CC(=O)OC[C@H]1O[C@@H](n2ncc(=O)[nH]c2=O)[C@H](OC(C)=O)[C@@H]1OC(C)=O [AZARIBINE] | Not Active | – | Not Active | Not Active | – | Not Active | Not Active | Not Active | – | – | – | – | Not Active |
| C[C@H]1[C@H](NC(=O)/C(=N\OC(C)(C)C(=O)O)c2csc(N)n2)C(=O)N1S(=O)(=O)O [AZTREONAM] | Not Active | Not Active | Not Active | Not Active | – | Not Active | Not Active | Not Active | – | – | – | – | – |
| O=C(O)CCNC(=O)c1ccc(/N=N/c2ccc(O)c(C(=O)O)c2)cc1 [BALSALAZIDE] | Not Active | Not Active | Not Active | Not Active | – | Not Active | Not Active | Not Active | – | – | – | – | – |
| COc1cc(OC)c(C(=O)CCCN2CCCC2)c(OC)c1 [BUFLOMEDIL] | Not Active | Not Active | Not Active | Not Active | – | Not Active | Not Active | Not Active | – | – | – | – | – |
| Cn1c(=O)c2c(ncn2C)n(C)c1=O [CAFFEINE] | Not Active | Not Active | Not Active | Not Active | – | Not Active | Not Active | – | – | – | – | – | – |
| O=C(O)CC(O)(CC(=O)O)C(=O)O [CITRIC ACID] | Not Active | Not Active | Not Active | – | – | Not Active | Not Active | Not Active | – | – | – | – | – |
| CC(C)(C(=O)O)c1ccc(C(O)CCCN2CCC(C(O)(c3ccccc3)c3ccccc3)CC2)cc1 (stereo unspecified) [FEXOFENADINE] | Not Active | Not Active | Not Active | Not Active | – | – | – | Not Active | – | – | – | – | – |
| CC(=O)OCC(=O)[C@@]12OC(C)(C)O[C@@H]1C[C@H]1[C@@H]3C[C@H](F)C4=CC(=O)C=C[C@]4(C)[C@@]3(F)[C@@H](O)C[C@@]12C [FLUOCINONIDE] | Not Active | Not Active | Not Active | Not Active | – | – | – | Not Active | – | – | – | – | – |
| O=c1c(-c2ccc(O)cc2)coc2cc(O)cc(O)c12 [GENISTEIN] | Not Active | Not Active | Not Active | Not Active | – | Not Active | Not Active | – | – | – | – | – | – |
| CN1CCC(=C2c3ccccc3CC(=O)c3sccc32)CC1 [KETOTIFEN] | Not Active | – | – | – | – | Not Active | Not Active | Not Active | 0.374 | 0.269 | 2.19 | 0.82 | – |
| N[C@@H](Cn1ccc(=O)c(O)c1)C(=O)O [L-MIMOSINE] | Not Active | Not Active | Not Active | Not Active | – | – | – | Not Active | – | – | – | – | – |
| C[C@@H]1C/C=C/C=C/C=C/C=C/[C@H](O[C@@H]2O[C@H](C)[C@@H](O)[C@H](N)[C@@H]2O)C[C@@H]2O[C@](O)(C[C@@H](O)C[C@H]3O[C@@H]3/C=C/C(=O)O1)C[C@H](O)[C@H]2C(=O)O [NATAMYCIN] | Not Active | Not Active | Not Active | Not Active | – | – | – | Not Active | – | – | – | – | – |
| COc1ccc2c(c1OC)C(=O)O[C@@H]2[C@H]1c2c(cc3c(c2OC)OCO3)CCN1C [NOSCAPINE] | Not Active | Not Active | Not Active | Not Active | – | – | – | Not Active | – | – | – | – | – |
| NNCCc1ccccc1 [PHENELZINE] | Not Active | Not Active | Not Active | Not Active | – | – | – | Not Active | – | – | – | – | – |
| CCN(CC)CCNC(=O)c1ccc(N)cc1 [PROCAINAMIDE] | Not Active | Not Active | Not Active | Not Active | – | – | – | Not Active | – | – | – | – | – |
| C[C@]12C=CC(=O)C=C1CC[C@H]1[C@@H]3C[C@@H](O)[C@](O)(C(=O)CO)[C@@]3(C)C[C@H](O)[C@@]12F [TRIAMCINOLONE] | Not Active | Not Active | Not Active | Not Active | – | – | – | Not Active | – | – | – | – | – |
